According to patent US20210253575A1, “PYRROLIDINE AMINE COMPOUNDS FOR THE TREATMENT OF AUTOIMMUNE DISEASE” (Hoffmann-La Roche Inc., priority 2018, published 2021):

The molecules below were run against T1, human TLR9 (Homo sapiens, UniProt Q9NR96) (assay: HEK293-Blue-hTLR-9 cells assay (SEAP reporter, ODN2006 stimulation)). Details: HEK293-Blue-hTLR9 cells, ODN2006 ligand, 20 hrs incubation.
T1 sequence (Q9NR96 26-1032): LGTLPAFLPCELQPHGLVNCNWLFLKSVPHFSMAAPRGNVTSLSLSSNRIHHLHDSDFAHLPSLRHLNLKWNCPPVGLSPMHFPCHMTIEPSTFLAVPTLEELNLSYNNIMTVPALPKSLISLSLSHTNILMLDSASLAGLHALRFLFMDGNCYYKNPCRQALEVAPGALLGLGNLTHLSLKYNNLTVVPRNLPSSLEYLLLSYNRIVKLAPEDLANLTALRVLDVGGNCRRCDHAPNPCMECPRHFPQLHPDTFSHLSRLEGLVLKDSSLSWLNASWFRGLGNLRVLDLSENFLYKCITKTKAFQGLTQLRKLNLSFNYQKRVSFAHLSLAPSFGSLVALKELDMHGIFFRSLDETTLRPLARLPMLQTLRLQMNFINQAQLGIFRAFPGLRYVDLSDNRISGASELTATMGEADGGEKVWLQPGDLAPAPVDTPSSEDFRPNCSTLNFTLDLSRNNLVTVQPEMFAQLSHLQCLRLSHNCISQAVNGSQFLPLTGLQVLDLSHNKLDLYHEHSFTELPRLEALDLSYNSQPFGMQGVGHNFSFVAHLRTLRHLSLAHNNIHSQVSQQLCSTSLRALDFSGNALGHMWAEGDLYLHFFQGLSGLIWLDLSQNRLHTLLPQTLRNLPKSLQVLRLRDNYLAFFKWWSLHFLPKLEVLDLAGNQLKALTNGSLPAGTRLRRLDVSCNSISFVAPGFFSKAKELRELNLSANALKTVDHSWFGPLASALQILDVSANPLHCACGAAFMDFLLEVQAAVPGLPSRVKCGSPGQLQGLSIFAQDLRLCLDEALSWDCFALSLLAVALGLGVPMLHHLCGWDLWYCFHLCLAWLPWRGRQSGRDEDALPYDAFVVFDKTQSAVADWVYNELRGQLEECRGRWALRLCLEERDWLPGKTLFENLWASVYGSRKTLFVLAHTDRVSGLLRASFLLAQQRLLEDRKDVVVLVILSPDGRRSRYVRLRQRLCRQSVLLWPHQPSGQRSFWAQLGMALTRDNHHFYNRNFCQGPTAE
Assay type: cell-based
Experimental: The following tests were carried out in order to determine the activity of the compounds of formula (I) in HEK293-Blue-hTLR-7/8/9 cells assay.
HEK293-Blue-hTLR-9 Cells Assay:
A stable HEK293-Blue-hTLR-9 cell line was purchased from InvivoGen (Cat. #: hkb-htlr9, San Diego, Calif., USA). These cells were originally designed for studying the stimulation of human TLR9 by monitoring the activation of NF-κB. A SEAP (secreted embryonic alkaline phosphatase) reporter gene was placed under the control of the IFN-β minimal promoter fused to five NF-κB and AP-1-binding sites. The SEAP was induced by activating NF-κB and AP-1 via stimulating HEK-Blue hTLR9 cells with TLR9 ligands. Therefore the reporter expression was declined by TLR9 antagonist under the stimulation of a ligand, such as ODN2006 (Cat. #: tlrl-2006-1, Invivogen, San Diego, Calif., USA), for incubation of 20 hrs. The cell culture supernatant SEAP reporter activity was determined using QUANTI-Blue™ kit (Cat. #: rep-qb1, Invivogen, San Diego, Calif., USA) at a wavelength of 640 nm, a detection medium that turns purple or blue in the presence of alkaline phosphatase.
HEK293-Blue-hTLR9 cells were incubated at a density of 250,000˜450,000 cells/mL in a volume of 170 μL in a 96-well plate in Dulbecco's Modified Eagle's medium (DMEM) containing 4.5 g/L glucose, 50 U/mL penicillin, […], […], 2 mM L-glutamine, 10% (v/v) heat-inactivated fetal bovine serum with addition of 20 μL test compound in a serial dilution in the presence of final DMSO at 1% and 10 μL of 20 uM ODN2006 in above DMEM, perform incubation under 37° C. in a CO2incubator for 20 hrs. Then 20 μL of the superatant from each well was incubated with 180 μL Quanti-blue substrate solution at 37° C. for 2 hrs and the absorbance was read at 620˜655 nm using a spectrophotometer. The signalling pathway that TLR9 activation leads to downstream NF-κB activation has been widely accepted, and therefore similar reporter assay was modified for evaluating TLR9 antagonist.

Structure (SMILES) | IC50
CC[C@@H]1CN(c2ccc(C#N)c3ncccc23)C[C@H]1CN1CCC2(CCNCC2)CC1 (relative stereo) [Example 15, 5-[Trans-3-(3,9-diazaspiro[5.5]undecan-3-ylmethyl)-4-ethyl-pyrrolidin-1-yl]quinoline-8-carbonitrile] | 32 nM
FC(F)(F)c1ccc(N2C[C@@H](CN3CCC4(CCNC4)C3)[C@H](C(F)(F)F)C2)c2nccnc12 (relative stereo) [Example 19, 5-[Trans-3-(2,7-diazaspiro[4.4]nonan-2-ylmethyl)-4-(trifluoromethyl)pyrrolidin-1-yl]-8-(trifluoromethyl)quinoxaline] | 815 nM
C[C@@H]1CN(c2ccc(C(F)(F)F)c3nccnc23)C[C@H]1CN1CCC2(CCNCC2)CC1 (relative stereo) [Example 21, 3-[[Trans-4-methyl-1-[8-(trifluoromethyl)quinoxalin-5-yl]pyrrolidin-3-yl]methyl]-3,9-diazaspiro[5.5]undecane] | 294 nM
N#Cc1ccc(N2C[C@@H](CN3CCC4(CCNCC4)CC3)[C@H](C(F)F)C2)c2cccnc12 (relative stereo) [Example 27, 5-[Trans-3-(3,9-diazaspiro[5.5]undecan-3-ylmethyl)-4-(difluoromethyl)pyrrolidin-1-yl]quinoline-8-carbonitrile] | 32 nM
N#Cc1ccc(N2C[C@@H](CN3CCC4(CCNCC4)CC3)[C@H](C3CC3)C2)c2cccnc12 (relative stereo) [Example 28, 5-[Trans-3-cyclopropyl-4-(3,9-diazaspiro[5.5]undecan-3-ylmethyl)pyrrolidin-1-yl]quinoline-8-carbonitrile] | 39 nM
CC[C@@H]1CN(c2ccc(C#N)c3ncccc23)C[C@H]1CN1CCC2(CCNC2)C1 (relative stereo) [Example 29, 5-[Trans-3-(2,7-diazaspiro[4.4]nonan-2-ylmethyl)-4-ethyl-pyrrolidin-1-yl]quinoline-8-carbonitrile] | 56 nM
C[C@@H]1CN(c2ccc(C(F)(F)F)c3nccnc23)C[C@H]1CN1CCC(N2CCCCC2)CC1 (relative stereo) [Example 33, 5-[Trans-3-methyl-4-[[4-(1-piperidyl)-1-piperidyl]methyl]pyrrolidin-1-yl]-8-(trifluoromethyl)quinoxaline] | 863 nM
N#Cc1ccc(N2C[C@@H](CN3CCC4(CCNC4)C3)[C@H](C(F)F)C2)c2cccnc12 (relative stereo) [Example 34, 5-[Trans-3-(2,7-diazaspiro[4.4]nonan-2-ylmethyl)-4-(difluoromethyl)pyrrolidin-1-yl]quinoline-8-carbonitrile] | 85 nM
CC(C)[C@@H]1CN(c2ccc(C#N)c3ncccc23)C[C@H]1CN1CCC2(CCNCC2)CC1 (relative stereo) [Example 36, 5-[Trans-3-(3,9-diazaspiro[5.5]undecan-3-ylmethyl)-4-isopropyl-pyrrolidin-1-yl]quinoline-8-carbonitrile] | 50 nM
CC(C)[C@@H]1CN(c2ccc(C#N)c3ncccc23)C[C@H]1CN1CCC2(CCNC2)C1 (relative stereo) [Example 44, 5-[Trans-3-(2,7-diazaspiro[4.4]nonan-2-ylmethyl)-4-isopropyl-pyrrolidin-1-yl]quinoline-8-carbonitrile] | 91 nM
N#Cc1ccc(N2CC(CN3CCC(N)CC3)C3(CC3)C2)c2nccnc12 (single isomer, unassigned) [Example 68A, 8-[7-[(4-Amino-1-piperidyl)methyl]-5-azaspiro[2.4]heptan-5-yl]quinoxaline-5-carbonitrile] | 71 nM
N#Cc1ccc(N2C[C@H](CN3CCC4(CCNCC4)CC3)[C@@H](C(F)(F)F)C2)c2nccnc12 [Example 1, 8-[(3S,4R)-3-(3,9-diazaspiro[5.5]undecan-3-ylmethyl)-4-(trifluoromethyl)pyrrolidin-1-yl]quinoxaline-5-carbonitrile] | 106 nM
N#Cc1ccc(N2C[C@H](CN3CCC4(CCNCC4)CC3)[C@@H](C(F)(F)F)C2)c2cccnc12 [Example 2, 5-[(3S,4R)-3-(3,9-diazaspiro[5.5]undecan-3-ylmethyl)-4-(trifluoromethyl)pyrrolidin-1-yl]quinoline-8-carbonitrile] | 76 nM
N#Cc1ccc(N2C[C@H](CN3CCC4(CCNC4)C3)[C@@H](C(F)(F)F)C2)c2nccnc12 (stereo partly drawn) [Example 5, 8-[(3S,4R)-3-(2,7-diazaspiro[4.4]nonan-2-ylmethyl)-4-(trifluoromethyl)pyrrolidin-1-yl]quinoxaline-5-carbonitrile] | 137 nM
N#Cc1ccc(N2C[C@H](CN3CCC4(CCCNC4)C3)[C@@H](C(F)(F)F)C2)c2cccnc12 (stereo partly drawn) [Example 6, 5-[(3S,7R)-3-(2,9-diazaspiro[4.5]decan-2-ylmethyl)-4-(trifluoromethyl)pyrrolidin-1-yl]quinoline-8-carbonitrile] | 136 nM
CC1(N)CCN(CC2CN(c3ccc(C#N)c4nccnc34)CC23CC3)CC1 (centres unmarked) [Example 7, 8-[7-[(4-Amino-4-methyl-1-piperidyl)methyl]-5-azaspiro[2.4]heptan-5-yl]quinoxaline-5-carbonitrile] | 77 nM
N#Cc1ccc(N2C[C@H](CN3CC4(CCCNC4)C3)[C@@H](C(F)(F)F)C2)c2cccnc12 [Example 8, 5-[(3S,7R)-3-(2,8-diazaspiro[3.5]nonan-2-ylmethyl)-4-(trifluoromethyl)pyrrolidin-1-yl]quinoline-8-carbonitrile] | 113 nM
N#Cc1ccc(N2C[C@H](CN3CCC4(CCNC4)C3)[C@@H](C(F)(F)F)C2)c2cccnc12 (stereo partly drawn) [Example 9, 5-[(3S,4R)-3-(2,7-diazaspiro[4.4]nonan-2-ylmethyl)-4-(trifluoromethyl)pyrrolidin-1-yl]quinoline-8-carbonitrile] | 104 nM
N#Cc1ccc(N2C[C@H](CN3CCC(N4CCCCC4)CC3)[C@@H](C(F)(F)F)C2)c2cccnc12 [Example 10, 5-[(3S,4R)-3-[[4-(1-piperidyl)-1-piperidyl]methyl]-4-(trifluoromethyl)pyrrolidin-1-yl]quinoline-8-carbonitrile] | 834 nM
N#Cc1ccc(N2CC(CN3CCC(N4CCCCC4)CC3)C3(CC3)C2)c2nccnc12 (centres unmarked) [Example 11, 8-[7-[[4-(1-Piperidyl)-1-piperidyl]methyl]-5-azaspiro[2.4]heptan-5-yl]quinoxaline-5-carbonitrile] | 125 nM
CC1(N)CCN(C[C@H]2CN(c3ccc(C#N)c4nccnc34)C[C@@H]2C(F)(F)F)CC1 [Example 12, 8-[(3S,4R)-3-[(4-amino-4-methyl-1-piperidyl)methyl]-4-(trifluoromethyl)pyrrolidin-1-yl]quinoxaline-5-carbonitrile] | 219 nM
N#Cc1ccc(N2CC(CN3CCC4(CCCNC4)CC3)C3(CC3)C2)c2nccnc12 (centres unmarked) [Example 13, 8-[7-(2,9-Diazaspiro[5.5]undecan-9-ylmethyl)-5-azaspiro[2.4]heptan-5-yl]quinoxaline-5-carbonitrile] | 60 nM
N#Cc1ccc(N2C[C@H](CN3CCC4(CCNC4)CC3)[C@@H](C(F)(F)F)C2)c2nccnc12 [Example 14, 8-[(3S,4R)-3-(2,8-Diazaspiro[4.5]decan-8-ylmethyl)-4-(trifluoromethyl)pyrrolidin-1-yl]quinoxaline-5-carbonitrile] | 153 nM
